Assay results taken from US20040167131A1, “Inhibitors of factor Xa and other serine proteases involved in the coagulation cascade” (Pfizer Inc., priority 2002, published 2004).
Read-outs that look alike come from different tables or passages of the source.

How the values were obtained:
[1] = tested on: dog; conditions: adjunct to recombinant tissue plasminogen activator; cited from earlier work
[2] = tested on: rabbit; conditions: rabbit model of venous thrombosis; cited from earlier work
[3] = tested on: canine coronary artery; conditions: canine coronary artery electrolytic lesion model; cited from earlier work
[4] = molecular target: T1, human factor Xa (Homo sapiens, UniProt P00742); assay: Determination of Factor Xa IC50 (cleavage of fluorogenic substrate F-S2765); format: biochemical
T1 construct: purchased Enzyme Research Laboratories
Experimental: The ability of compounds to act as inhibitors of human factor Xa catalytic activity was assessed by determination of that concentration of test substance that inhibited by 50% (IC50) the ability of human factor Xa to cleave the fluorogenic substrate F-S2765 (N-α-Z-D-Arg-Gly-Arg-pNA HCl, California Peptide Research). […] The IC50 was determined at 3 pM and/or 30 pM concentrations of human factor Xa (Enzyme Research Laboratories). These concentrations were achieved by diluting a stock solution of human factor Xa in the appropriate amount of buffer containing 10 mM HEPES, 150 mM NaCl, and 0.1% BSA at pH 7.4 (HBSA buffer). Accordingly, 73 μL of the factor Xa/buffer solution was added to 2.5 μL of DMSO-reconstituted compound and incubated for 55 minutes at room temperature. After warming to 37° C. for am additional 5 minutes, 50 μL of rewarmed substrate was added and the IC50 determined by monitoring the increase in absorbance at 390 nm excitation/460 nm emission (455 nm cutoff) in a fluorometric plate reader or 30 minutes.

[5] = tested on: human plasma; assay: Determination of Prothrombin Time (PT); format: biochemical; conditions: concentration required to increase the clotting time by 2-fold, human tissue thromboplastin
Experimental: The prothrombin time (PT) is a measure of extrinsic and common pathway factors. In this assays, human tissue thromboplastin is added to human plasma which activates pathway factors, including factor X activation to factor Xa, leading to clot formation. Significant inhibition of factor Xa, by a small molecule inhibitor, will reduce the conversion of prothrombin to thrombin and thereby increase the time to clot formation in this assay. The value 2 X PT is the concentration of the inhibitor required to increase the clotting time by 2-fold.

[6] = tested on: rat; conditions: arteriovenous shunt and venous stasis models; cited from earlier work
[7] = models of arterial and venous thrombosis; cited from earlier work
[8] = 3 pM human factor Xa, read-out: FXa 3 pM IC50
[9] = 30 pM human factor Xa, read-out: FxXa 30 pM IC50

T1 sequence (P00742 235-488 limits assumed): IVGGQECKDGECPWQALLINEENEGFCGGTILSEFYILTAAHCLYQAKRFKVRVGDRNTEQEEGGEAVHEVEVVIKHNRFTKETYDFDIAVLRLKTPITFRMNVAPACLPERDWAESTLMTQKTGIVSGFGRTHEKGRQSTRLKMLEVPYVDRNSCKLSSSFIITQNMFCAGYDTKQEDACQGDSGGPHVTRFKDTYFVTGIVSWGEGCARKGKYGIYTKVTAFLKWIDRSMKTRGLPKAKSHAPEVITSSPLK
T1 sequence (P00742 41-179 partner limits assumed): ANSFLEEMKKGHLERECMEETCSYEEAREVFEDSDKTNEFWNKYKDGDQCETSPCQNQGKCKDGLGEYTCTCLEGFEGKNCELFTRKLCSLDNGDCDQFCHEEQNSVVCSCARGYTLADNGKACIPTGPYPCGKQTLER

Molecule: rTAP: recombinant tick anticoagulant peptide, a protein or polypeptide factor Xa inhibitor (YNRLCIKPRDWIDECDSNEGGERAYFRNGKGGCDSFWICPEDHTGADYYSSYRDCFNACI; UniProt P17726 1-60, looked up)
- clot lysis and reocclusion [1]: accelerate the recombinant tissue plasminogen activator mediated clot lysis and prevent acute reocclusion
- fibrin deposition [2]: reduce fibrin deposition
- thrombus mass and time to occlusion [3]: reduce thrombus mass and time to occlusion

Molecule: CS(=O)(=O)c1ccccc1-c1ccc(NC(=O)C2(NC(=O)Nc3ccc(Cl)cc3)CCCC2)cc1 [Example 1, 1-[3-(4-Chloro-phenyl)-ureido]-cyclopentanecarboxylic acid (2′-methanesulfonyl-biphenyl-4-yl)-amide]
- IC50 [4, 8]: 38 nM
- PT Conc. 2X Prolong. [5]: 13.45 µM

Molecule: CC(=N)N1CC[C@H](Oc2ccc([C@H](Cc3ccc4ccc(C(=N)N)cc4c3)C(=O)O)cc2)C1 [DX9065a]
- inhibition of thrombus formation [6]: inhibition of thrombus formation was achieved at doses that had little effect on APTT

Molecule: CS(=O)(=O)c1ccccc1-c1ccc(NC(=O)C2(NC(=O)Nc3ccc(Cl)cn3)CC2)c(F)c1 [Example 4, 1-[3-(5-Chloro-pyridin-2-yl)-ureido]-cyclopropanecarboxylic acid (3-fluoro-2′-methanesulfonyl-biphenyl-4-yl)-amide]
- IC50 [4, 9]: 255 nM

Molecule: CS(=O)(=O)c1ccccc1-c1ccc(NC(=O)C2(NC(=O)Nc3ccc(Cl)cc3)CCCCC2)cc1 [Example 10, 1-[3-(4-Chloro-phenyl)-ureido]-cyclohexanecarboxylic acid (2′-methanesulfonyl-biphenyl-4-yl)-amide]
- IC50 [4, 8]: 16 nM

Molecule: COc1ccc(CN(CC(=O)Nc2ccc(-c3ccccc3S(C)(=O)=O)cc2F)C(=O)Nc2ccc(Cl)cc2)cc1 [Example 28, 2-[3-(4-Chloro-phenyl)-1-(4-methoxy-benzyl)ureido]-N-(3-fluoro-2′-methanesulfonyl-biphenyl-4-yl)-acetamide]
- IC50 [4, 9]: 80 nM

B1: Antistasin: a potent inhibitor of blood coagulation factor Xa from the Mexican leech, Haementeria officinalis (protein, UniProt P15358 18-136, looked up)
Antistasin: QGPFGPGCEEAGCPEGSACNIITDRCTCSGVRCRMHCPHGFQRSRYGCEFCKCRLEPMKATCDISECPEGMMCSRLTNKCDCKIDINCRKTCPNGLKRDKLGCEYCECRPKRKLIPRLS
- antithrombotic activity [7]: displays antithrombotic activity
